Assay results taken from PubChem BioAssay (NCI).
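Dose response: 5 concentrations. Exposure: 48 h. Format: 96-well plates. Endpoint: linear interpolation; highest concentration if not reached. The concentration for 50% growth inhibition is given as GI50. TGI: total growth inhibition.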

Tests used:
Experiment in all cases: DTP human tumour cell line panel, 48 h
[1] = test system: 786-0 renal
[2] = test system: A498 renal
[3] = test system: A549 NSCLC
[4] = test system: ACHN renal
[5] = test system: BT-549 breast
[6] = test system: CAKI-1 renal
[7] = test system: CCRF-CEM leukemia
[8] = test system: COLO 205 colon
[9] = test system: DU-145 prostate
[10] = test system: EKVX NSCLC
[11] = test system: HCC-2998 colon
[12] = test system: HCT-116 colon
[13] = test system: HCT-15 colon
[14] = test system: HL-60(TB) leukemia
[15] = test system: HOP-62 NSCLC
[16] = test system: HOP-92 NSCLC
[17] = test system: HS 578T breast
[18] = test system: HT29 colon
[19] = test system: IGROV1 ovarian
[20] = test system: K-562 leukemia
[21] = test system: KM12 colon
[22] = test system: LOX IMVI melanoma
[23] = test system: M14 melanoma
[24] = test system: MALME-3M melanoma
[25] = test system: MCF7 breast
[26] = test system: MDA-MB-231 breast
[27] = test system: MDA-MB-435
[28] = test system: MOLT-4 leukemia
[29] = test system: NCI-H226 lung
[30] = test system: NCI-H23 lung
[31] = test system: NCI-H460 lung
[32] = test system: NCI-H522 lung
[33] = test system: NCI/ADR-RES ovarian
[34] = test system: OVCAR-3 ovarian
[35] = test system: OVCAR-4 ovarian
[36] = test system: OVCAR-5 ovarian
[37] = test system: OVCAR-8 ovarian
[38] = test system: PC-3 prostate
[39] = test system: RPMI-8226 leukemia
[40] = test system: RXF 393 renal
[41] = test system: SF-268 CNS
[42] = test system: SF-295 CNS
[43] = test system: SF-539 CNS
[44] = test system: SK-MEL-2 melanoma
[45] = test system: SK-MEL-28 melanoma
[46] = test system: SK-MEL-5 melanoma
[47] = test system: SK-OV-3 ovarian
[48] = test system: SN12C renal
[49] = test system: SNB-19 CNS
[50] = test system: SNB-75 CNS
[51] = test system: SR leukemia
[52] = test system: SW-620 colon
[53] = test system: T-47D breast
[54] = test system: TK-10 renal
[55] = test system: U251 CNS
[56] = test system: UACC-257 melanoma
[57] = test system: UACC-62 melanoma
[58] = test system: UO-31 renal

O=c1[nH]c(Sc2sc3ccc(Cl)cc3c2CBr)nc(=S)[nH]1
GI50 [1]: > 100 µM
TGI [1]: > 100 µM
GI50 [2]: > 100 µM
TGI [2]: > 100 µM
GI50 [3]: > 100 µM
TGI [3]: > 100 µM
GI50 [4]: > 100 µM
TGI [4]: > 100 µM
GI50 [5]: > 100 µM
TGI [5]: > 100 µM
GI50 [6]: > 100 µM
TGI [6]: > 100 µM
GI50 [7]: > 100 µM
TGI [7]: > 100 µM
GI50 [8]: > 100 µM
TGI [8]: > 100 µM
GI50 [9]: > 100 µM
TGI [9]: > 100 µM
GI50 [10]: > 100 µM
TGI [10]: > 100 µM
GI50 [11]: > 100 µM
TGI [11]: > 100 µM
GI50 [12]: > 100 µM
TGI [12]: > 100 µM
GI50 [13]: > 100 µM
TGI [13]: > 100 µM
GI50 [14]: > 100 µM
TGI [14]: > 100 µM
GI50 [15]: > 100 µM
TGI [15]: > 100 µM
GI50 [16]: > 100 µM
TGI [16]: > 100 µM
GI50 [17]: > 100 µM
TGI [17]: > 100 µM
GI50 [18]: > 100 µM
TGI [18]: > 100 µM
GI50 [19]: > 100 µM
TGI [19]: > 100 µM
GI50 [20]: > 100 µM
TGI [20]: > 100 µM
GI50 [21]: > 100 µM
TGI [21]: > 100 µM
GI50 [22]: > 100 µM
TGI [22]: > 100 µM
GI50 [23]: > 100 µM
TGI [23]: > 100 µM
GI50 [24]: > 100 µM
TGI [24]: > 100 µM
GI50 [25]: > 100 µM
TGI [25]: > 100 µM
GI50 [26]: > 100 µM
TGI [26]: > 100 µM
GI50 [27]: > 100 µM
TGI [27]: > 100 µM
GI50 [28]: 99.1 µM
TGI [28]: > 100 µM
GI50 [29]: > 100 µM
TGI [29]: > 100 µM
GI50 [30]: > 100 µM
TGI [30]: > 100 µM
GI50 [31]: > 100 µM
TGI [31]: > 100 µM
GI50 [32]: > 63.8 µM
TGI [32]: > 100 µM
GI50 [33]: > 100 µM
TGI [33]: > 100 µM
GI50 [34]: > 100 µM
TGI [34]: > 100 µM
GI50 [35]: > 100 µM
TGI [35]: > 100 µM
GI50 [36]: > 100 µM
TGI [36]: > 100 µM
GI50 [37]: > 100 µM
TGI [37]: > 100 µM
GI50 [38]: > 100 µM
TGI [38]: > 100 µM
GI50 [39]: > 100 µM
TGI [39]: > 100 µM
GI50 [40]: > 81.7 µM
TGI [40]: > 100 µM
GI50 [41]: > 100 µM
TGI [41]: > 100 µM
GI50 [42]: > 100 µM
TGI [42]: > 100 µM
GI50 [43]: > 100 µM
TGI [43]: > 100 µM
GI50 [44]: > 100 µM
TGI [44]: > 100 µM
GI50 [45]: > 100 µM
TGI [45]: > 100 µM
GI50 [46]: > 100 µM
TGI [46]: > 100 µM
GI50 [47]: > 100 µM
TGI [47]: > 100 µM
GI50 [48]: > 100 µM
TGI [48]: > 100 µM
GI50 [49]: > 100 µM
TGI [49]: > 100 µM
GI50 [50]: > 100 µM
TGI [50]: > 100 µM
GI50 [51]: > 100 µM
TGI [51]: > 100 µM
GI50 [52]: > 100 µM
TGI [52]: > 100 µM
GI50 [53]: > 100 µM
TGI [53]: > 100 µM
GI50 [54]: > 100 µM
TGI [54]: > 100 µM
GI50 [55]: > 100 µM
TGI [55]: > 100 µM
GI50 [56]: > 100 µM
TGI [56]: > 100 µM
GI50 [57]: > 100 µM
TGI [57]: > 100 µM
GI50 [58]: > 100 µM
TGI [58]: > 100 µM
